{
  "source": "patent US6590140B1",
  "about": "“Metal-regulated transporters and uses therefor” (Trustees of Dartmouth College, priority 1996, dated 2003)",
  "key": {"wild type (DY1457) cells": {"tested_on": "wild type (DY1457) cells", "assay": "Zinc-limited growth, wild type yeast", "format": "cell-based, Saccharomyces cerevisiae", "conditions": "LZM, 16 hours", "protocol": "Strains used were DY1457 (MATα ade6 can1 his3 leu2 trp1 ura3) and ZHY1 (MaTα ade6 can1 his3 leu2 trp1 ura3 zrt1:: LEU2). Yeast were grown in standard culture media (SD, YPD) (Eide, D., Davis-Kaplan S., Jordan, I., Sipe, D., and Kaplan, J. (199: 2) J. Biol. Chem. 267, 20774-20781) supplemented with necessary auxotrophic requirements and either 2% glucose or 2% galactose. A zinc-limiting medium (LZM) was prepared in the same manner as LIM (Eide and Guarenete (1992) J. Gen. Microbiol. 138:347-354) except that […]. Cell number in liquid cultures was determined by measuring the optical density of cell suspensions at 600 nm (A600) and converting to cell number with a standard curve.\nStrains used were DY1457 (MATα ade6 can1 his3 leu2 trp1 ura3), ZHY1 (AMTα ade6 can1 his3 leu2 trp1 ura3 zrt1::LEU2), ZHY2 (MATα ade6 can1 his3 leu2 trp1 ura3 zrt2::HIS3), and ZHY3 (MATα ade6 can1 his3 leu2 trp1 ura3 zrt1::LEU2 zrt2::HIS3). […] The concentrations of free (i.e. unchelated) zinc were calculated using MAXCHELATOR software (Chris Patton, Stanford University). Cell number in liquid cultures was determined by measuring the absorbance of cell suspensions at 600 nm (OD600) and converting to cell number with a standard curve. […]"}, "zrt2 (ZHY2) cells": {"tested_on": "zrt2 (ZHY2) cells", "assay": "Zinc-limited growth, zrt2 mutant yeast", "format": "cell-based, Saccharomyces cerevisiae", "conditions": "zrt2, LZM, 16 hours", "protocol": "Strains used were DY1457 (MATα ade6 can1 his3 leu2 trp1 ura3), ZHY1 (AMTα ade6 can1 his3 leu2 trp1 ura3 zrt1::LEU2), ZHY2 (MATα ade6 can1 his3 leu2 trp1 ura3 zrt2::HIS3), and ZHY3 (MATα ade6 can1 his3 leu2 trp1 ura3 zrt1::LEU2 zrt2::HIS3). Yeast were grown in YP or SD media (Sherman et al. (1986) Methods in Yeast Genetics, Cold Spring Harbor Laboratory, Cold Spring Harbor, N.Y.) supplemented with necessary auxotrophic requirements and either 2% glucose or 2% galactose. Zinc-limiting YP and SD agar plates contained either bathophenanthroline disulfonate (BPS, 200 μM) or EDTA (1 mM), respectively. […] The concentrations of free (i.e. unchelated) zinc were calculated using MAXCHELATOR software (Chris Patton, Stanford University). Cell number in liquid cultures was determined by measuring the absorbance of cell suspensions at 600 nm (OD600) and converting to cell number with a standard curve.\nTo further assess the role of the low affinity system as a source of zinc, growth of wild type and zrt2 cells in a zinc-limiting medium, LZM, supplemented with increasing amounts of zinc was examined. […] Number of cell divisions are plotted against [Zn]T and the calculated free zinc concentration ([Zn]F). […]"}, "[1]": {"tested_on": "divalent cation uptake system", "conditions": "total zinc; earlier studies (Fuhrmann and Rothstein 1968); read-out: apparent Km of zinc uptake by the divalent cation uptake system; cited from earlier work"}},
  "data": [
    {"smiles": "[Zn+2]", "note": "[zinc]", "values": [
      {"measurement": "calculated free zinc [Zn]F sufficient for maximum growth yield", "setting": "wild type (DY1457) cells", "value": "~6", "unit": "pM"},
      {"measurement": "total zinc sufficient for maximum number of cell divisions", "setting": "wild type (DY1457) cells", "value": 10, "unit": "µM"},
      {"measurement": "calculated free zinc [Zn]F sufficient for maximum growth yield", "setting": "zrt2 (ZHY2) cells", "value": "~6", "unit": "pM"},
      {"measurement": "total zinc sufficient for maximum growth yield", "setting": "zrt2 (ZHY2) cells", "value": 10, "unit": "µM"},
      {"measurement": "Km", "setting": "[1]", "value": "~500", "unit": "µM"}
    ]}
  ]
}
